Source: ChEMBL document CHEMBL1145352, “Synthesis and cytotoxic activity of trisubstituted-1,3,5-triazines” (Bioorg Med Chem Lett, 2007)
In brackets after ≈: the same amount, converted by molar mass.

Tests used:
HL-60 [1] = experiment: Photocytotoxicity against human HL60 cells irradiated with 1.25 J cm^-2 UVA dose after 72 hrs by MTT assay; type: functional; details: HL-60, light or radiation study
[2] = test system: Mycobacterium tuberculosis; experiment: Antimycobacterial activity against Mycobacterium tuberculosis H37Rv; type: functional
[3] = test system: Mycobacterium tuberculosis; experiment: Antimycobacterial activity against Mycobacterium tuberculosis H37Rv relative to control; type: functional; set-up: concentration or dose not given beside the values
[4] = Inhibition of oxygen evolution rate in spinach chloroplasts; type: functional, Spinacia oleracea
LoVo [5] = experiment: Photocytotoxicity against human LoVo cells irradiated with 1.25 J cm^-2 UVA dose after 72 hrs by MTT assay; type: functional; details: light or radiation study
LoVo [6] = experiment: Photocytotoxicity against human LoVo cells irradiated with 2.5 J cm^-2 UVA dose after 72 hrs by MTT assay; type: functional; details: light or radiation study
HL-60 [7] = experiment: Cell cycle arrest in human HL60 cells irradiated with 2.5 J cm^-2 CUVA assessed as accumulation at G1 phase at 2.5 mM after 24 hrs; type: functional
HL-60 [8] = experiment: Cell cycle arrest in human HL60 cells irradiated with 2.5 J cm^-2 CUVA assessed as accumulation at G1 phase at 2.5 mM after 48 hrs; type: functional
HL-60 [9] = experiment: Cell cycle arrest in human HL60 cells irradiated with 2.5 J cm^-2 CUVA assessed as accumulation at G1 phase at 2.5 mM after 72 hrs; type: functional
HL-60 [10] = experiment: Cell cycle arrest in human HL60 cells irradiated with 2.5 J cm^-2 CUVA assessed as accumulation at G2 phase at 2.5 mM after 24 hrs; type: functional
HL-60 [11] = experiment: Cell cycle arrest in human HL60 cells irradiated with 2.5 J cm^-2 CUVA assessed as accumulation at G2 phase at 2.5 mM after 48 hrs; type: functional
HL-60 [12] = experiment: Cell cycle arrest in human HL60 cells irradiated with 2.5 J cm^-2 CUVA assessed as accumulation at G2 phase at 2.5 mM after 72 hrs; type: functional
HL-60 [13] = experiment: Cell cycle arrest in human HL60 cells irradiated with 2.5 J cm^-2 CUVA assessed as accumulation at S phase at 2.5 mM after 24 hrs; type: functional
HL-60 [14] = experiment: Cell cycle arrest in human HL60 cells irradiated with 2.5 J cm^-2 CUVA assessed as accumulation at S phase at 2.5 mM after 48 hrs; type: functional
HL-60 [15] = experiment: Cell cycle arrest in human HL60 cells irradiated with 2.5 J cm^-2 CUVA assessed as accumulation at S phase at 2.5 mM after 72 hrs; type: functional
HL-60 [16] = experiment: Induction of apoptosis in human HL60 cells irradiated with 2.5 J cm^-2 CUVA assessed as appearance of sub G1 peak at 2.5 mM after 24 hrs; type: functional
HL-60 [17] = experiment: Induction of apoptosis in human HL60 cells irradiated with 2.5 J cm^-2 CUVA assessed as appearance of sub G1 peak at 2.5 mM after 48 hrs; type: functional
HL-60 [18] = experiment: Induction of apoptosis in human HL60 cells irradiated with 2.5 J cm^-2 CUVA assessed as appearance of sub G1 peak at 2.5 mM after 72 hrs; type: functional
HL-60 [19] = experiment: Cell cycle arrest in human HL60 cells irradiated with 2.5 J cm^-2 CUVA assessed as accumulation at G1 phase at 5 mM after 24 hrs; type: functional
HL-60 [20] = experiment: Cell cycle arrest in human HL60 cells irradiated with 2.5 J cm^-2 CUVA assessed as accumulation at G1 phase at 5 mM after 48 hrs; type: functional
HL-60 [21] = experiment: Cell cycle arrest in human HL60 cells irradiated with 2.5 J cm^-2 CUVA assessed as accumulation at G1 phase at 5 mM after 72 hrs; type: functional
HL-60 [22] = experiment: Cell cycle arrest in human HL60 cells irradiated with 2.5 J cm^-2 CUVA assessed as accumulation at G2 phase at 5 mM after 24 hrs; type: functional
HL-60 [23] = experiment: Cell cycle arrest in human HL60 cells irradiated with 2.5 J cm^-2 CUVA assessed as accumulation at G2 phase at 5 mM after 48 hrs; type: functional
HL-60 [24] = experiment: Cell cycle arrest in human HL60 cells irradiated with 2.5 J cm^-2 CUVA assessed as accumulation at G2 phase at 5 mM after 72 hrs; type: functional
HL-60 [25] = experiment: Cell cycle arrest in human HL60 cells irradiated with 2.5 J cm^-2 CUVA assessed as accumulation at S phase at 5 mM after 24 hrs; type: functional
HL-60 [26] = experiment: Cell cycle arrest in human HL60 cells irradiated with 2.5 J cm^-2 CUVA assessed as accumulation at S phase at 5 mM after 48 hrs; type: functional
HL-60 [27] = experiment: Cell cycle arrest in human HL60 cells irradiated with 2.5 J cm^-2 CUVA assessed as accumulation at S phase at 5 mM after 72 hrs; type: functional
HL-60 [28] = experiment: Induction of apoptosis in human HL60 cells irradiated with 2.5 J cm^-2 CUVA assessed as appearance of sub G1 peak at 5 mM after 24 hrs; type: functional
HL-60 [29] = experiment: Induction of apoptosis in human HL60 cells irradiated with 2.5 J cm^-2 CUVA assessed as appearance of sub G1 peak at 5 mM after 48 hrs; type: functional
HL-60 [30] = experiment: Induction of apoptosis in human HL60 cells irradiated with 2.5 J cm^-2 CUVA assessed as appearance of sub G1 peak at 5 mM after 72 hrs; type: functional
Chlorella vulgaris = experiment: Antialgal activity against Chlorella vulgaris assessed as inhibition of chlorophyll production; type: functional, organism-based

c1ccc(Nc2nc(Nc3ccccc3)nc(Nc3ccccc3)n2)cc1
GI50 (HL-60 [1]): > 10 mM | MIC [2]: > 6.25 µg/mL | Inhibition [3]: 0% | IC50 [4]: 1.072 mmol/dm3

Oc1nc(O)nc(O)n1
GI50 (HL-60 [1]): 4.3 mM | MIC [2]: > 6.25 µg/mL | Inhibition [3]: 39% | IC50 [4]: 0.081 mmol/dm3

CC(=O)Nc1nc(NC(C)=O)nc(NC(C)=O)n1
GI50 (HL-60 [1]): 6.8 mM | GI50 (LoVo [5]): 3.5 mM | MIC [2]: > 6.25 µg/mL | GI50 (LoVo [6]): 1.89 mM | Activity (HL-60 [7]): 29.3% | Activity (HL-60 [8]): 44.5% | Activity (HL-60 [9]): 45.2% | Activity (HL-60 [10]): 10.8% | Activity (HL-60 [11]): 10.3% | Activity (HL-60 [12]): 12% | Activity (HL-60 [13]): 58.4% | Activity (HL-60 [14]): 45% | Activity (HL-60 [15]): 43.8% | Activity (HL-60 [16]): 13.2% | Activity (HL-60 [17]): 27% | Activity (HL-60 [18]): 40.5% | Activity (HL-60 [19]): 34.2% | Activity (HL-60 [20]): 50.3% | Activity (HL-60 [21]): 57.3% | Activity (HL-60 [22]): 11.1% | Activity (HL-60 [23]): 11.7% | Activity (HL-60 [24]): 6.9% | Activity (HL-60 [25]): 54.3% | Activity (HL-60 [26]): 38.6% | Activity (HL-60 [27]): 37.1% | Activity (HL-60 [28]): 21% | Activity (HL-60 [29]): 26% | Activity (HL-60 [30]): 46% | Inhibition [3]: 11% | IC50 [4]: 0.148 mmol/dm3 | IC50 (Chlorella vulgaris): 0.208 mmol/dm3

CNc1nc(NC)nc(NC)n1
GI50 (HL-60 [1]): > 10 mM | MIC [2]: > 6.25 µg/mL | Inhibition [3]: 24% | IC50 [4]: 0.118 mmol/dm3 | IC50 (Chlorella vulgaris): 0.356 mmol/dm3

COc1ccc(Nc2nc(Nc3ccc(OC)cc3)nc(Nc3ccc(OC)cc3)n2)cc1
GI50 (HL-60 [1]): 3.4 mM | MIC [2]: > 6.25 µg/mL | Inhibition [3]: 72% | IC50 [4]: 0.241 mmol/dm3 | IC50 (Chlorella vulgaris): 0.079 mmol/dm3

CCN(CC)c1nc(N(CC)CC)nc(N(CC)CC)n1
GI50 (HL-60 [1]): > 10 mM | GI50 (LoVo [5]): > 20 mM | MIC [2]: > 6.25 µg/mL | GI50 (LoVo [6]): 12.5 mM | Inhibition [3]: 0% | IC50 [4]: 0.244 mmol/dm3 | IC50 (Chlorella vulgaris): 0.067 mmol/dm3

CN(C)c1nc(N(C)C)nc(N(C)C)n1 [ALTRETAMINE]
GI50 (HL-60 [1]): > 10 mM | GI50 (LoVo [5]): 17.2 mM | MIC [2]: > 6.25 µg/mL | GI50 (LoVo [6]): 10.3 mM | Inhibition [3]: 28% | IC50 [4]: 0.486 mmol/dm3 | IC50 (Chlorella vulgaris): 0.125 mmol/dm3

CN(C)C(=O)Nc1ccc(Cl)c(Cl)c1 [DCMU]
IC50 [4]: 0.0019 mmol/dm3 | IC50 (Chlorella vulgaris): 0.0073 mmol/dm3

CO[C@H]1/C=C/O[C@@]2(C)Oc3c(C)c(O)c4c(O)c(c(/C=N/N5CCN(C)CC5)c(O)c4c3C2=O)NC(=O)/C(C)=C\C=C\[C@H](C)[C@H](O)[C@@H](C)[C@@H](O)[C@@H](C)[C@H](OC(C)=O)[C@@H]1C [RIFAMPIN]
MIC [2]: 0.125 µg/mL (≈ 0.152 µM) | Inhibition [3]: 100%
